Data set [1] can be described thus: In Vivo Pharmacokinetics Assay. Further details: species or system mouse. The settings on record: oral dose of 10 mg/kg. The method, then:
Full pharmacokinetics study: Male Balb/c mice (n=3, body weights 22-25 g) or male Wistar rats (n=3, body weights 250-300 g) were administered the test compound intravenously via the lateral tail vein or orally via gavage. The formulation was typically a 2.5 mg/mL solution of the compound in 75% PEG300 and 25% D5W. Six blood samples of 50 μL each were collected serially for 24 h after dosing. The blood samples were centrifuged to separate the plasma. Plasma samples were analyzed and quantified by LC-MS/MS.
Rapid pharmacokinetics study: Male Balb/c mice (n=3, body weights 22-25 g) or male Wistar rats (n=3, body weights 250-300 g) were administered the test compound intravenously (IV) via the lateral tail vein or orally (PO) via gavage. The formulation was typically a 2.5 mg/mL solution of the compound in 75% PEG300 and 25% D5W. Six blood samples of 50 μL each were collected serially for 24 h after dosing. […] Plasma samples were analyzed and quantified by LC-MS/MS.
For both full and rapid pharmacokinetics studies, the following parameters were calculated by non-compartmental regression analysis using Winnonlin 5.0 software (Pharsight, Mountain View, Calif., USA): plasma clearance (Cl), plasma maximum concentration (Cmax), plasma area-under-the-concentration-time-curve (AUC0-inf), and percent oral bioavailability (F %).

Data set [2] deals with SW620 cells. Kind of data set: SW620 Cell Viability Assay (Cell Titer Glo). The class given is cell-based. The settings on record: 9 serial dilutions between 10 and 0.002 μM, FIG. 1. The method, then: SW620 cells were seeded in 1640 RPMI+10% FBS at a density of 1500 cells per 96-well in black walled, clear bottom tissue culture treated plates. Test compounds were serially diluted in DMSO then added to the cells (final DMSO concentration of 0.1%) and incubated at 37° C. and 5% CO2 for 4 days. To measure cell viability, cell plates were brought to room temperature, culture media was removed, and 200 μl of Cell Titer-Glo reagent (Promega, kit components mixed as per the manufacturer's protocol then diluted 1:2 with growth media) was added to each well. Plates were shaken for 5 minutes, then incubated at room temperature for 5 minutes, and the luminescence was measured (Trilux, Perkin Elmer).

The subject of data set [3] is p38α MAP Kinase. The experiment in a line: A549 p38α MAP Kinase Bright-Glo Reporter Gene Assay. Type of data set: cell-based. To be noted: ratio of p38 RGA IC50 to A375 CP IC50. Here is the method:
A549 cells were stably-transfected with the IL-8 promoter driven reporter, pGL3-IL8-Luc. The cells were plated at 4×10^5/ml into 384-well solid white plates (40 ul/well, 5% CD-FBS, 1×P/S, DMEM) and were incubated overnight (18-20 hours) at 37° C. Test compounds were serially diluted in DMSO, then 50 nl of test solution was added to the incubation (final DMSO concentration of 0.1%). After incubating with test compound for 30 min, cells were stimulated with 1 ng/ml IL-1 beta (10 ul of 5 ng/ml solution per well). Bright-Glo (25 ul/well) was added to measure luciferase expression after 7-8 hours of stimulation.

Data set [4] concerns A375 cells. The experiment in a line: A375 Cellular Proliferation Assay (A375 CP). Type of data set: cell-based. To be noted: Homo sapiens, A-375, 48 h; A375-luc cells, 2 days. The method, then:
A375-luc cells engineered to express luciferase are plated to 384-well white clear bottom plates as 1,500 cells/50 μl/well in DMEM containing 10% FBS. Compounds of the invention dissolved in 100% DMSO at appropriate concentrations are transferred to the cells by a robotic Pin Tool (100 nl). The cells are incubated for 2 days at […], then 25 μl of BrightGlo™ is added to each well and the plates are read by luminescence. The concentration of each compound for 50% inhibition (IC50) was calculated by non-linear regression using XL Fit data analysis software.

`COC(=O)N[C@@H](C)CNc1nccc(-c2cn(C(C)C)nc2-c2cc(Cl)cc(NS(C)(=O)=O)c2F)n1` [Compound 9, Methyl N-[(2S)-1-({4-[3-(5-chloro-2-fluoro-3-methanesulfonamidophenyl)-1-(propan-2-yl)-1H-pyrazol-4-yl]pyrimidin-2-yl}amino)propan-2-yl]carbamate]: the “AUC (total drug exposure)” value in data set [1] is 30 ± 4 µM·h. In data set [2], the “Effect on cellular proliferation” value is “induction in cellular proliferation”. `CNc1nccc(-c2cn(C(C)C)nc2-c2cc(Cl)cc(NS(C)(=O)=O)c2F)n1` [Compound 29, N-(5-chloro-2-fluoro-3-{4-[2-(methylamino)pyrimidin-4-yl]-1-(propan-2-yl)-1H-pyrazol-3-yl}phenyl)methanesulfonamide]: in data set [3], the “(p38 RGA)/(A375) ratio” value was determined as 220. For `COC(=O)NC[C@H](C)Nc1nccc(-c2cn(C(C)C)nc2-c2cc(Cl)cc(NS(C)(=O)=O)c2F)n1` [Compound 32, Methyl N-[(2S)-2-({4-[3-(5-chloro-2-fluoro-3-methanesulfonamidophenyl)-1-(propan-2-yl)-1H-pyrazol-4-yl]pyrimidin-2-yl}amino)propyl]carbamate], in data set [3], the “(p38 RGA)/(A375) ratio” value stood at 91. For `COC(=O)N[C@@H](C)CNc1nccc(-c2cn(C(C)C)nc2-c2cc(NS(C)(=O)=O)c(C)c(OC)c2)n1` [Compound 27], in data set [4], the IC50 (usually the concentration that gives 50% inhibition) was more than 20 µM.

Values taken from patent publication US9593100B2, “Compounds and compositions as protein kinase inhibitors” (Array BioPharma, Inc., priority 2009, dated 2017).
